Assay results as given in patent publication US6667328B2, “Therapeutic agents for diabetes” (Fujimoto Brothers Co., Ltd., priority 2000, dated 2003).

What was measured:
[1] = tested on: Genetically diabetic db/db mice (C57BL/ksJ Jcl-dbm db/db mice); assay: Blood sugar lowering actions in genetically diabetic mice; assay type: in vivo; conditions: serum glucose vs control group
Procedure: (§1) Genetically diabetic db/db mice (C57BL/ksJ Jcl-dbm db/db mice) older than 8 weeks were grouped depend on their blood sugar levels of the prior measurements in order to divide groups with almost equal mean value of the sugar level. The respective groups of db/db mice were designates as the following groups: the group given the compound of the present invention, the group of troglitazone, and the group given no administrating group. For the compounds of the present invention, two doses: 75 mg/kg and 150 mg/kg, and for troglitazone, a dose of 150 mg/kg were individually given to the mice as a forced oral administration once daily for 14 days successively. These agents were suspended in 3.0% Arabic gum solution for administration. To the control group, only the same volume of 3.0% Arabic gum solution was administered. On the next day of the final administration, each mouse was […] for sampling. The blood samples were subject to serum separation. The glucose level in the serum of each group was measured. Then, a reduction rate in a glucose level (%) compared to the control group was calculated with mean value of each group according to the equation below. […] [formula]

[2] = tested on: 3T3-L1 preadipocyte cells; assay: Differentiation-inducing actions on adipose cells (oil red-O staining, absorbance at 490 nm); assay type: cell-based; conditions: 3T3-L1, oil red-O extract absorbance at 490 nm, ratio to control group (1.0)
Procedure: The cloned cell line 3T3-L1 of the preadipocyte cells at the 9-20th generation were used. The cell suspension at a concentration of 2×10^4 cells/ml was added 500 μl/well in a 24 well microplate. Then, the microplates were cultured at 37° C. in the atmosphere of 5% CO2 for 4 days with D-MEM containing 5% inactivated fetal calf serum (hereinafter abbreviated as “FCS D-MEM”). Next, the following procedures were conducted.
(1) To test compound of this invention, 500 μl/well of the following solutions was added to each well:
1) test compound-containing medium (T-MEM) in which the test compound in a stock solution (30 mM in DMSO) was diluted with FCS D-MEM containing 0.1 μM dexamethazone and 100 ng/ml insulin (hereinafter abbreviated as DEX-Ins-FCS D-MEM);
2) FCS-D-MEM; 3) DEX-Ins-FCS D-MEM; 4) 0.1% DMSO-containing DEX-Ins-FCS D-MEM for me control wells.
(2) After above additions were done, the culture plates were incubated at 37° C. in 5% CO2 for 3 days. Then, the same operations as in the procedure (1) were repeated for exchange of the culture medium. The culture plates were incubated at 37° C. in 5% CO2 for further 3 days.
(3) After incubation, the culture medium was removed from the culture plates. Then, the FCS D-MEM was added to the FCS D-MEM-wells, and next the medium prepared for containing 100 ng/ml of insulin with the FCS D-MEM (hereinafter abbreviated as “Ins-FCS D-MEM”) was added at 500 μl/well to the T-MEM wells and DEX-Ins-FCS D-MEM wells. All culture plates were incubated for 4 days.
(4) After incubation, the culture medium was removed. For cell fixation, 500 μl/well of 10% formalin in neutral buffer was added, and left at the room temperature for approximately 20 minutes or longer. Then the formalin solution was removed, and 60% 2-propanol solution was added at 500 μl/well, then quickly removed, and the oil red-O staining solution was added at 250 μl/well. The culture plates were sealed with plate seals, and left at room temperature for 30 minutes or longer. After incubation, the staining solution was removed, and the 60% 2-propanol solution was added at 500 μl/well, and quickly removed. The cells were rinsed with water a few times, and then water drops were flipped away. A cell-lysis buffer was added at 500 μl/well, and the culture plates were sealed with plate seals, and left at 37° C. for 1 hour to extract the pigments. Next, 300 μl/well of the extract solution was transferred at a 96 well micro-plates, and then the absorbance of each extract was measured at wavelength of 490 nm.
The absorbance ratios of the respective test compounds-groups to the control group, the mean absorbance of which was designated as 1.0, are shown in Table 8. Based on the judgement that the absorbance higher than that of the control group indicates a greater differentiation-inducing activity of the test compound, the compounds of the present invention were determined to have the activity to induce differentiation of preadipocytes to adipocytes, resulting in elevating insulin sensitivity of organs. Thereby, this activity would confer the efficacy in the therapy of diabetes.

[3] = tested on: db/db mice; assay: Antihyperlipidemic activities in genetically diabetic mice; assay type: in vivo; conditions: 150 mg/kg p.o. once daily for 14 days, serum
Procedure: as §1
In the same way as described in EXAMPLE 4, db/db mice were grouped in the manner by which the respective groups had almost equivalent mean blood sugar levels. The compounds 1, 3, 13, 21 and 22 of the present invention, suspended in 3.0% Arabic gum solution, were orally administrated, with a dose of 150 mg/kg, once daily for successive 14 days. The control group of mice were given the vehicle solution only. On the next day of the final administration, each mouse was bled for sampling. The blood was subjected for serum separation, and then subjected to measurements of β-lipoproteins, free fatty acids, and triglycerides. The reduction rate (%) of each measurement compared to the control group was calculated by the equation indicated in EXAMPLE 4. […] (Table 9).

[4] = tested on: fructose-induced hyperlipidemic rats; assay: Hypotriglyceridemic activity in fructose-induced hyperlipidemic rats; assay type: in vivo, Sprague Dawley rats; conditions: fructose-loaded rats, 30 mg/kg p.o. once daily for 7 days; for inhibition in vivo at 30 mg/kg: Rattus norvegicus, po, 168 h, read-out: Reduction in Serum Triglyceride (%)
Procedure: The compounds were tested for a hypotriglyceridemic activity in fructose-induced hyperlipidemic rats in accordance with the method described in Nippon Yakurigaku Zasshi, 92 (3), 175-180 (1988). Sprague Dawley rats were grouped by the ranking method of body weight. Then, instead of drinking water, rats were given 75% fructose aqueous ad libitum for one week, thereby, resulting in the state of hypertriglyceridemia. The compounds of the present invention, suspended in 3% Arabic gum aqueous solution, and a dose of 30 mg/kg was orally administrated once daily for 7 days during the fructose-loading period. The control group of rats were given 3% Arabic gum aqueous solution only. Two hours later of the final administration, the rats were bled from the abdominal aorta to measure serum triglycerides and total cholesterol. The reduction rate (%) of each measurement compared to the control groups was calculated according to the equation indicated in EXAMPLE 4.

[5] = tested on: high cholesterol-fed hamsters; assay: Lipid lowering effects in high cholesterol-fed hamsters; assay type: in vivo, Syrian hamsters; conditions: serum, negative = elevation
Text: According to the method described in Jpn Pharmacol Ther, 23 (suppl 4), s1047-1053 (1995), male Syrian hamstars were fed for 3 weeks with 1% cholesterol 10% coconut oil (W/W) supplemented diet, and thereby, became to be hypercholesterolemia models. Prior to administration of the compounds, under ether anesthesia, the hamsters were bled from the orbital vein for measurement of serum total cholesterol. They were grouped in the manner by which the respective groups had almost equal serum total cholesterol levels. The normal group of hamsters were fed ordinary diet. Thereafter, the compound 1 and bezafibrate were orally administered once daily at doses of 15 (for only compound 1), 30, 60 and 120 mg/kg for 7 days. Even during the treatment period, cholesterol loading was continued. Four hours later of the final administration, the hamsters were bled by cardiac puncture. The total cholesterol and triglycerides in the serum obtained were measured by the enzymatic method. The results are shown in Table 11 (the negative values mean elevation rates.)
The actions of the compounds of the present invention at a dose of 15 mg/kg were measured in the same method as described in EXAMPLE 8.

[6] = tested on: mice; assay: Acute toxicity tests with single dosing in mice; assay type: in vivo; conditions: 2000 mg/kg single oral dose, observed for 2 weeks
Procedure: The compounds (the compound 1 and 10) of the present invention were singly orally administered to each mouse at a dose of 2000 mg/kg.

[7] = tested on: Salmonella typhimurium TA100 and TA98; assay: Mutagenesis tests (reverse mutation test); assay type: cell-based; conditions: TA100 and TA98, direct method (−s9mix) and metabolically activated method (+s9mix)
Procedure: In order to examine mutagenecity of the compound 1, the reverse mutation test was conducted with use of Salmonella typhimurium TA100 and TA98.

[8] = 75 mg/kg oral once daily for 14 days
[9] = 150 mg/kg oral once daily for 14 days
[10] = 15 mg/kg oral once daily for 7 days
[11] = 30 mg/kg oral once daily for 7 days
[12] = 60 mg/kg oral once daily for 7 days
[13] = 120 mg/kg oral once daily for 7 days

Structure (SMILES)	Reduction in Blood Glucose (%) [1, 8] [%]	Reduction in Blood Glucose (%) [1, 9] [%]	Absorbance Ratio [2]	Reduction Rate (%) Free Fatty Acids [3] [%]	Reduction Rate (%) Triglycerides [3] [%]	Reduction Rate (%) β-lipoproteins [3] [%]	Reduction in Serum Triglyceride (%) [4] [%]	Reduction Rate (%) Total cholesterol [5, 10] [%]	Reduction Rate (%) Triglyceride [5, 10] [%]	Reduction Rate (%) Total cholesterol [5, 11] [%]	Reduction Rate (%) Triglyceride [5, 11] [%]	Reduction Rate (%) Total cholesterol [5, 12] [%]	Reduction Rate (%) Triglyceride [5, 12] [%]	Reduction Rate (%) Total cholesterol [5, 13] [%]	Reduction Rate (%) Triglyceride [5, 13] [%]	Survival after single oral dose [6]	Mutagenicity (number of reversely mutated colonies) [7]	inhibition in vivo at 30 mg/kg [4] [%]
N#CN=C1NC(=O)/C(=C\c2ccc(C=Cc3ccccc3)cc2)S1 [Compound 1, 2-(N-Cyanoimino)-5-[(E)-4-stylylbenzylidene]thiazolidin-4-one]	31	37	1.46	39	69	51	47	26	60	25	62	29	69	41	80	all 3 mice given the respective compounds survived	non-mutagenic	–
N#CN=C1NC(=O)C(=Cc2ccc(OCCc3ccccc3)cc2)S1 [Compound 10, 2-(N-Cyanoimino)-5-(4-phenethyloxybenzylidene)thiazolidin-4-one]	–	–	2.12	–	–	–	–	–	–	–	–	–	–	–	–	all 3 mice given the respective compounds survived	–	39
N#CN=C1NC(=O)C(=Cc2ccc(Oc3ccccc3)cc2)S1 [Compound 22, 2-(N-Cyanoimino)-5-(4-phenoxybenzylidene)thiazolidin-4-one]	16	34	1.73	41	65	56	–	–	–	–	–	–	–	–	–	–	–	65
